Assay results reported in US12281102B2, “Inhibitors of APOL1 and methods of using same” (Vertex Pharmaceuticals Incorporated, priority 2020, dated 2025).
Read-outs that look alike come from different tables or passages of the source.

Biological target: T1, G1 APOL1 (Homo sapiens, UniProt O14791, I384M/S342G)
T1 construct: expressed in transfected cells
T1 sequence (O14791 28-398 S342G/I384M): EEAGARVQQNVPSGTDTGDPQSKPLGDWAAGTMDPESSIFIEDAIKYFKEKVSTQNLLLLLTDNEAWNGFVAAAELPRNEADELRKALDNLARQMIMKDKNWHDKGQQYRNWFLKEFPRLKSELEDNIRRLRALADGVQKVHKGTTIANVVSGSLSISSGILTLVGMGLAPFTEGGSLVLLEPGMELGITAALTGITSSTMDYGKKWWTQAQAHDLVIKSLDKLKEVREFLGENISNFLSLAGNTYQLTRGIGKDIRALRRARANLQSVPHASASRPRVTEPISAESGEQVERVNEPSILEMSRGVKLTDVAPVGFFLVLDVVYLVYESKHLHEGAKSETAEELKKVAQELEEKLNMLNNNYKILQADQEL
Assay: Acute APOL1 Thallium Assay with inducible stable clones of HEK 293 cells
Type: cell-based
Settings: HEK 293 T-Rex inducible stable clone expressing G1 APOL1
How it was run: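 APOL1 pore function was measured as thallium influx, detected by a Tl+-sensitive fluorescent dye loaded as AM ester, on a FLIPR Tetra after Tl+ addition. Cells were HEK T-Rex G1 APOL1 clone DC3.25, 26,000 per well, induced with tetracycline at plating in Opti-MEM assay medium.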

[1] = read-out: Thallium Assay (IC50)

IC50 [1] | SMILES | IC50 (Thallium Assay (IC50))
0.25 to 1 µM | O=C1CC(NC[C@H]2C[C@H](c3c(-c4ccc(F)cc4)[nH]c4c(F)cc(F)cc43)C2)C(=O)N1 (some centres unmarked) [Compound 422, 3-((((1r,3r)-3-(5,7-difluoro-2-(4-fluorophenyl)-1H-indol-3-yl)cyclobutyl)methyl)amino)pyrrolidine-2,5-dione] | –
> 1 µM | O=S(=O)(NC[C@H](O)CO)NC[C@H]1C[C@H](c2c(-c3ccc(F)cc3)[nH]c3c(F)cc(F)cc32)C1 [Compound 350] | –
> 1 µM | NC(=O)C(=O)NC[C@H]1C[C@@H](c2c(-c3ccc(F)cc3)[nH]c3c(F)cc(F)cc32)C1 [Compound 453, N^1-(((1s,3s)-3-(5,7-difluoro-2-(4-fluorophenyl)-1H-indol-3-yl)cyclobutyl)methyl)oxalamide] | –
> 1 µM | CN(CC(=O)N[C@H]1C[C@H](c2c(-c3ccc(F)cc3)[nH]c3c(F)cc(F)cc32)C1)S(C)(=O)=O [Compound 103] | –
0.25 to 1 µM | OCC(CO)NCC1CC(c2c(-c3ccc(F)cc3)[nH]c3c(F)cc(F)cc23)C1 (centres unmarked) [Compound 376] | –
> 1 µM | O=C(NC[C@H]1C[C@H](c2c(-c3ccc(F)cc3)[nH]c3c(F)cc(F)cc32)C1)[C@H]1CCN1 [Compound 245] | –
> 1 µM | O=C1NCC[C@H]1NS(=O)(=O)NC[C@H]1C[C@H](c2c(-c3ccc(F)cc3)[nH]c3c(F)cc(F)cc32)C1 [Compound 332, (3R)-3-[[3-[5,7-difluoro-2-(4-fluorophenyl)-1H-indol-3-yl]cyclobutyl]methylsulfamoylamino]pyrrolidin-2-one] | –
> 1 µM | O=S(=O)(N[C@H]1C[C@H](c2c(-c3ccc(F)cc3)[nH]c3c(F)cc(F)cc32)C1)C1CCOCC1 [Compound 156] | –
0.25 to 1 µM | C[C@H](O)C(=O)NC[C@H]1C[C@H](c2c(-c3ccc(F)cc3)[nH]c3c(F)cc(F)cc32)C1 [Compound 207] | –
0.25 to 1 µM | NC(=O)C1(C(=O)N[C@H]2C[C@H](c3c(-c4ccc(F)cc4)[nH]c4c(F)cc(F)cc43)C2)CC1 [Compound 446, N^1′-[3-[5,7-difluoro-2-(4-fluorophenyl)-1H-indol-3-yl]cyclobutyl]cyclopropane-1,1-dicarboxamide] | –
0.25 to 1 µM | CNCCC(=O)N[C@H]1C[C@H](c2c(-c3ccc(F)cc3)[nH]c3c(F)cc(F)cc32)C1 [Compound 134] | –
> 1 µM | O=C(CN1CCCC1)NC[C@H]1C[C@@H](c2c(-c3ccc(F)cc3)[nH]c3c(F)cc(F)cc32)C1 [Compound 327] | –
< 0.25 µM | N[C@H](CO)C(=O)NC[C@H]1C[C@H](c2c(-c3ccc(F)cc3)[nH]c3c(F)cc(F)cc32)C1 [Compound 201] | –
> 1 µM | O=C1CC(NCC2CC(c3c(-c4ccc(F)cc4)[nH]c4c(F)cc(F)cc34)C2)CN1 (centres unmarked) [Compound 410] | –
> 1 µM | CC1(NCC2CC(c3c(-c4ccc(F)cc4)[nH]c4c(F)cc(F)cc34)C2)COC1 (centres unmarked) [Compound 404] | –

The remaining lines, values behind:

SMILES | IC50 [1] | IC50 (Thallium Assay (IC50))
Fc1ccc(-c2[nH]c3c(F)cc(F)cc3c2CC2CNC2)cc1 [Compound 436, 3-(azetidin-3-ylmethyl)-5,7-difluoro-2-(4-fluorophenyl)-1H-indole] | < 0.25 µM | –
CCS(=O)(=O)NCC(=O)N[C@H]1C[C@H](c2c(-c3ccc(F)cc3)[nH]c3c(F)cc(F)cc32)C1 [Compound 108] | > 1 µM | –
OCC(CO)(CO)NCC1CC(c2c(-c3ccc(F)cc3)[nH]c3c(F)cc(F)cc23)C1 (centres unmarked) [Compound 406] | > 1 µM | –
NC(=O)CNS(=O)(=O)NC[C@H]1C[C@H](c2c(-c3ccc(F)cc3)[nH]c3c(F)cc(F)cc32)C1 [Compound 341] | 0.25 to 1 µM | –
CS(=O)(=O)NCC(=O)N[C@H]1C[C@@H](c2c(-c3ccc(F)cc3)[nH]c3c(F)cc(F)cc32)C1 [Compound 42] | > 1 µM | –
CC(C)(O)CC(=O)NC1CC(Cc2c(-c3ccc(F)cc3)[nH]c3c(F)cc(F)cc23)C1 (centres unmarked) [Compound 160, N-[3-[[5,7-difluoro-2-(4-fluorophenyl)-1H-indol-3-yl]methyl]cyclobutyl]-3-hydroxy-3-methylbutanamide] | 0.25 to 1 µM | –
C[C@@H](O)[C@@H](CO)NS(=O)(=O)NC[C@H]1C[C@H](c2c(-c3ccc(F)cc3)[nH]c3c(F)cc(F)cc32)C1 [Compound 363] | > 1 µM | –
O=C(N[C@H]1C[C@H](Cc2c(-c3ccc(F)cc3)[nH]c3c(F)cc(F)cc23)C1)C1(CO)CC1 [Compound 159, N-[3-[[5,7-difluoro-2-(4-fluorophenyl)-1H-indol-3-yl]methyl]cyclobutyl]-1-(hydroxymethyl)cyclopropanecarboxamide] | > 1 µM | –
COC1(CC(=O)NC[C@H]2C[C@@H](c3c(-c4ccc(F)cc4)[nH]c4c(F)cc(F)cc43)C2)CCC1 [Compound 324] | > 1 µM | –
CC(O)CCNS(=O)(=O)NC[C@H]1C[C@H](c2c(-c3ccc(F)cc3)[nH]c3c(F)cc(F)cc32)C1 (some centres unmarked) [Compound 356] | 0.25 to 1 µM | –
O=C(CC1CCOCC1)N[C@H]1C[C@H](c2c(-c3ccc(F)cc3)[nH]c3c(F)cc(F)cc32)C1 [Compound 100] | > 1 µM | –
O=C1NCC[C@@H]1NC1CC(c2c(-c3ccc(F)cc3)[nH]c3c(F)cc(F)cc23)C1 (stereo partly drawn) [Compound 20, (3S)-3-[[3-[5,7-difluoro-2-(4-fluorophenyl)-1H-indol-3-yl]cyclobutyl]amino]pyrrolidin-2-one] | < 0.25 µM | –
Cn1ccc(CC(=O)N[C@H]2C[C@H](c3c(-c4ccc(F)cc4)[nH]c4c(F)cc(F)cc43)C2)n1 [Compound 106] | 0.25 to 1 µM | –
NCC1CC(c2c(-c3ccc(F)cc3)[nH]c3c(F)cc(C(F)(F)F)cc23)C1 (centres unmarked) [Compound 178] | 0.25 to 1 µM | –
O=C1CC(C(=O)NC[C@H]2C[C@@H](c3c(-c4ccc(F)cc4)[nH]c4c(F)cc(F)cc43)C2)CN1 (some centres unmarked) [Compound 294] | > 1 µM | –
CC(C)(C)OC(=O)N1CCC[C@H]1C(=O)NC[C@H]1C[C@H](c2c(-c3ccc(F)cc3)[nH]c3c(F)cc(F)cc32)C1 [Compound 217] | – | 0.25 to 1 µM
O=c1ccc2cc(S(=O)(=O)N[C@H]3C[C@H](c4c(-c5ccc(F)cc5)[nH]c5c(F)cc(F)cc54)C3)ccc2[nH]1 [Compound 155] | > 1 µM | –
CCC(C)S(=O)(=O)N[C@H]1C[C@H](c2c(-c3ccc(F)cc3)[nH]c3c(F)cc(F)cc32)C1 (some centres unmarked) [Compound 152] | > 1 µM | –
Cn1ccnc1S(=O)(=O)N[C@H]1C[C@H](c2c(-c3ccc(F)cc3)[nH]c3c(F)cc(F)cc32)C1 [Compound 148] | > 1 µM | –
CC1(CO)CCN1S(=O)(=O)NC[C@H]1C[C@H](c2c(-c3ccc(F)cc3)[nH]c3c(F)cc(F)cc32)C1 (mixture of isomers) [Compound 364] | > 1 µM | –
CC[C@@H](NC(=O)OC(C)(C)C)C(=O)NC[C@H]1C[C@H](c2c(-c3ccc(F)cc3)[nH]c3c(F)cc(F)cc32)C1 [Compound 331] | > 1 µM | –
CC(C(=O)NC[C@H]1C[C@@H](c2c(-c3ccc(F)cc3)[nH]c3c(F)cc(F)cc32)C1)N(C)C (mixture of isomers) [Compound 281] | > 1 µM | –
Cc1nccn1CC(=O)NC[C@H]1C[C@@H](c2c(-c3ccc(F)cc3)[nH]c3c(F)cc(F)cc32)C1 [Compound 321] | > 1 µM | –
CC(=O)NCC(=O)NC[C@H]1C[C@H](c2c(-c3ccc(F)cc3)[nH]c3c(F)cc(F)cc32)C1 [Compound 250] | > 1 µM | –
O=C1CC(C(=O)NC[C@H]2C[C@@H](c3c(-c4ccc(F)cc4)[nH]c4c(F)cc(F)cc43)C2)CC(=O)N1 [Compound 291] | > 1 µM | –
O=S(=O)(NC[C@H]1C[C@H](c2c(-c3ccc(F)cc3)[nH]c3c(F)cc(F)cc32)C1)N[C@H]1C[C@H](O)C1 [Compound 344] | > 1 µM | –
